Test [1] concerns the target T1, WT ForT (Streptomyces kaniharaensis, UniProt A0A5S9CYM0). Further details: method as in PMID 31518483. The conditions noted are these: ForT-catalysed coupling to PRPP, two products with a new C-C bond; cited from earlier work.
Test [2] addresses T1, WT ForT. Description: Substrate scope of WT ForT, LC-MS assay. In kind it is biochemical. The conditions noted are these: MgPRPP. The procedure:
We assayed a series of pyrazoles as ForT substrates in which the extracyclic amine was replaced by hydrogen (PDA), nitro- (NPDA), methyl- (MPDA) and iodo- (IPDA) groups (figure 5a; electronic supplementary material, table S1). […] On the other hand, 4-amino-1H-pyrazole-3-carboxylate (APCA) can be coupled to PRPP by ForT to give two products containing a new C-C bond, albeit in less than 5% overall yield (figure 5b). In order to assess the importance of pyrazole substitution, we incubated 3-amino-1H-pyrazole-4-carboxylate (iso-APCA) (electronic supplementary material, table S2) and MgPRPP in the presence of ForT. […] Thus, the product was one of two possible C-N nucleotides.

A further test has as its target T2, ForT/PRPP complex (Streptomyces kaniharaensis, UniProt A0A5S9CYM0).
T2 sequence (A0A5S9CYM0 1-341): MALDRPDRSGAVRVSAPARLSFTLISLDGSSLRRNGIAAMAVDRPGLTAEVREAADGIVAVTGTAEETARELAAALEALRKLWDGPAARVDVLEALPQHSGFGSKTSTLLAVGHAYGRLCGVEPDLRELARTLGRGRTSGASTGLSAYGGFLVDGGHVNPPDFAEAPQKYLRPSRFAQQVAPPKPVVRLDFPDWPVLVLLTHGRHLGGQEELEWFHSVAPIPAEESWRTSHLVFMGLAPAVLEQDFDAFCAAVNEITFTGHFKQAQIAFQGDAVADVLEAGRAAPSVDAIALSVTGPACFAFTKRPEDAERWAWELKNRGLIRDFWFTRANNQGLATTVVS
The test can be described thus: Binding of HPDA to the ForT/PRPP complex. Particulars: Li, unpublished.

The next test deals with T3, S21A ForT variant (Streptomyces kaniharaensis, UniProt A0A5S9CYM0, S21A).
T3 sequence (A0A5S9CYM0 1-341 S21A): T2 sequence (A0A5S9CYM0 1-341) with S21A
The test can be described thus: biochemical.

A further test addresses T4, L24A ForT variant (Streptomyces kaniharaensis, UniProt A0A5S9CYM0, L24A).
T4 sequence (A0A5S9CYM0 1-341 L24A): T2 sequence (A0A5S9CYM0 1-341) with L24A
Description: biochemical.

The target in another test is T5, S174A ForT variant (Streptomyces kaniharaensis, UniProt A0A5S9CYM0, S174A).
T5 sequence (A0A5S9CYM0 1-341 S174A): T2 sequence (A0A5S9CYM0 1-341) with S174A
Description: biochemical.

The next test addresses T6, K263A ForT variant (Streptomyces kaniharaensis, UniProt A0A5S9CYM0, K263A).
T6 sequence (A0A5S9CYM0 1-341 K263A): T2 sequence (A0A5S9CYM0 1-341) with K263A
Description: biochemical.

The next test addresses T7, E211A ForT variant (Streptomyces kaniharaensis, UniProt A0A5S9CYM0, E211A).
T7 sequence (A0A5S9CYM0 1-341 E211A): T2 sequence (A0A5S9CYM0 1-341) with E211A
The test can be described thus: biochemical.

Test [3] addresses T1, WT ForT. Description: ITC binding of PRPP to free enzyme, absence of Mg2+. Particulars: no Mg2+, room temperature. An excerpt: We therefore extended these studies to obtain the binding affinity of APDA to the ForT/PRPP binary complex at room temperature using isothermal calorimetry (ITC) measurements. […] The omission of the catalytically important metal ion thereby avoids any heat generated by catalytic turnover ‘contaminating’ heat released by ligand binding. As a result, these ITC studies report only on the affinity of PRPP and APDA for the free WT enzyme and its PRPP binary complex, respectively.

Another test addresses T8, T138A ForT variant (Streptomyces kaniharaensis, UniProt A0A5S9CYM0, T138A).
T8 sequence (A0A5S9CYM0 1-341 T138A): T2 sequence (A0A5S9CYM0 1-341) with T138A
The test can be described thus: biochemical.

Another test addresses T9, T138V ForT variant (Streptomyces kaniharaensis, UniProt A0A5S9CYM0, T138V).
T9 sequence (A0A5S9CYM0 1-341 T138V): T2 sequence (A0A5S9CYM0 1-341) with T138V
The test can be described thus: biochemical.

Numbering of substitutions follows the chain as printed. “And” between values parts separate entries of the source, which are not always exact repeats. Equal entries are not always repeated.

For `Nc1cn[nH]c1C(=O)O` [APCA, 4-amino-1H-pyrazole-3-carboxylate], on WT ForT [1], the “overall yield of coupled products” value is “less than 5%”.

With `O=C(O)c1n[nH]c(C(=O)O)c1O` [HPDA, 4-hydroxy-1H-pyrazole-3,5-dicarboxylic acid], the “substrate for the ForT-catalysed coupling with PRPP” value (shortened to “substrate”) on WT ForT [2] is reported as “is not a substrate”. Also, the Kd at ForT/PRPP complex amounted to 37000 nM.

Regarding `O=C(O)c1n[nH]c(C(=O)O)c1I` [IPDA], at WT ForT [2], the “substrate” value is recorded as “None of these pyrazole-dicarboxylates proved to be substrates”.

`Cc1c(C(=O)O)n[nH]c1C(=O)O` [MPDA]: the “substrate” value on WT ForT [2] is on record as “None of these pyrazole-dicarboxylates proved to be substrates”.

Take `O=C(O)c1n[nH]c(C(=O)O)c1[N+](=O)[O-]` [NPDA]: the “substrate” value at WT ForT [2] is on record as “None of these pyrazole-dicarboxylates proved to be substrates”.

Take `O=C(O)c1cc(C(=O)O)[nH]n1` [PDA]: on WT ForT [2], the “substrate” value is “None of these pyrazole-dicarboxylates proved to be substrates”.

With `O=P(O)(O)OC[C@H]1O[C@H](OP(=O)(O)OP(=O)(O)O)[C@H](O)[C@@H]1O` [PRPP, 5′-phosphoribose-1′-pyrophosphate], the Kd on S21A ForT variant was 350 ± 20 nM; at L24A ForT variant it was 1500 ± 100 nM; at S174A ForT variant it was 6000 ± 300 nM; at K263A ForT variant it was 20000 ± 8000 nM; at E211A ForT variant, 950 ± 20 nM; on WT ForT [3] it was 900 nM and 930 nM. In addition, the values for the Kd on T138A ForT variant and on T138V ForT variant were 6700 ± 500 nM and 700 ± 400 nM, respectively.

Consider `Nc1[nH]ncc1C(=O)O` [iso-APCA, 3-amino-1H-pyrazole-4-carboxylate], for which the “substrate” value at WT ForT [2] is “a new product had been formed”.

The values above are taken from article PMC9832568, “Experimental and computational snapshots of C-C bond formation in a C-nucleoside synthase” (Open Biology, 2023).
